Where two headings read alike, the source gives them in different places.
Key:
[1] = molecular target: T1, porcine pancreatic α-amylase (Sus scrofa, UniProt P00690); experiment: Continuous α-amylase activity assay (starch hydrolysis) by ITC; type: biochemical; settings: for IC50: calculated according to the Cheng–Prussoff equation (eq 8) for a 1 M substrate
T1 sequence (P00690 16-511): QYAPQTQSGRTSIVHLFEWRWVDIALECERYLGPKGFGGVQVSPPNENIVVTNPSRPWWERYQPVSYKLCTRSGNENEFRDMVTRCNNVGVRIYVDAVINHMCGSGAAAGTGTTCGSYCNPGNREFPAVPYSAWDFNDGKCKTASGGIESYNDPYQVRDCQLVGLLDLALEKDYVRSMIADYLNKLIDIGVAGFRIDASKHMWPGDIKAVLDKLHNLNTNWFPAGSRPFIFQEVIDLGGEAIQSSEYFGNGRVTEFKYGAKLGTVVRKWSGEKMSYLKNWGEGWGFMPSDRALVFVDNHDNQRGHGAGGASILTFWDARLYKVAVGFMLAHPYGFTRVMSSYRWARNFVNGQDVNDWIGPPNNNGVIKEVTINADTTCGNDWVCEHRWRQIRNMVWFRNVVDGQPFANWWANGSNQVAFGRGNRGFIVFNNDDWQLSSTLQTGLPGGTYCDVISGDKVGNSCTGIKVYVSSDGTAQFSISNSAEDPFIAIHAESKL
Experimental: Without rebuffering, α-amylase was diluted each day with 0.1 M phosphate buffer/0.04 M NaCl to a final dilution of 1:1000 and stored at 4 °C. […] The starch solution was prepared daily, according to the protocol recommended by Brodkorb et al. with some modifications.[37],[38]
The starch suspension in 0.1 M phosphate buffer/0.04 M NaCl was heated for 5 min under vigorous stirring. After cooling to room temperature, the solution was diluted to a final mass concentration of 40.5 g/L (equivalent to 250 mM based on the molecular weight of the glucose monomers). The concentration of starch is typically expressed as a percentage by weight (%, w/v) due to the inherent polydispersity of the molecule, which is influenced by the source of the natural starch, the manufacturing process, and the preparation of the sample.[28],[39] However, the calculation of inhibition constants requires the use of molarities.
Control experiments were performed with 12 nM α-amylase in 0.1 M phosphate buffer/0.04 M NaCl placed in the sample cell at 310 K, and various volumes (1–10 μL) of starch solution were recurrently injected up to three times with an injection interval of 1600 s. It was elucidated that the optimal volume for reaching the maximal turnover velocity (vmax) was 5 μL. Prior to measurement, α-amylase was incubated with the flavan-3-ols for 60 min at 277 K to ensure that adsorption equilibrium has been reached. This was compulsory as the time required for the ITC system to reach equilibrium and to start measurement varied considerably (10–25 min). To confirm α-amylase stability, controls without an inhibitor were performed at the beginning and the end of each day.
The release of heat during the conversion of starch was monitored, and calculations were performed using Microsoft Excel software. The detected thermal power is directly proportional to the enzymatic rate (v0) (eq 1 and 2).[40],[41] [drawing 1] 1 [drawing 2] 2
The heat rate (dQ/dt) is obtained as a function of time (t) and provides information about the conversion rate (ν). The reaction enthalpy (ΔRHapp) is calculated by integrating the heat peak over its entire extent and dividing the result by the number of substrate molecules converted by the enzyme (eq 3). The substrate concentration at time t ([S]t) is calculated according to eq 4. [drawing 3] 3 [drawing 4] 4
The Michaelis–Menten constant (Km) is defined as the substrate concentration at the time (t0.5) when the reaction rate reaches half-maximum (vmax) (eq 5). [drawing 5] 5
Thus, the thermogram provides all information to calculate inhibition constants. While competitive inhibition (Kic, eq 6) is based on the formation of an enzyme–inhibitor complex (EI), the uncompetitive inhibition (Kiu, eq 7) refers to the binding of a ternary enzyme–substrate–inhibitor complex (ESI). [drawing 6] 6 [drawing 7] 7
The maximal conversion rate vmax and the Michaelis–Menten constant Km are calculated from the control experiments in the absence of an inhibitor. In the presence of an inhibitor [I], the apparent values of [drawing 8] and [drawing 9] have been determined.
The inhibitor concentration that is required to reduce the conversion rate to 50% (IC50) depends on the substrate concentration [S] and is calculated according to the Cheng–Prussoff equation (eq 8).[42] [drawing 10] 8

[2] = molecular target: T1, porcine pancreatic α-amylase; experiment: Saturation transfer difference (STD)-NMR interaction study; type: binding; settings: for saturation protein–ligand aliph., corrected by a blank / saturation protein–ligand arom., corrected by a blank / saturation aliph. / saturation arom.: 10 μM α-amylase, 1 mM ligand, 298 K; for saturation protein–ligand arom., corrected by a blank: catechol ring protons; for saturation aliph. / saturation arom.: head prints 'blank', values are protein–ligand not corrected by a blank; for ratio aliph.: share of aliphatic proton saturation; for ratio arom.: share of aromatic proton saturation
Text: STD-NMR parameters were optimized based on the Bruker standard pulse sequence stddiffgp19.3 using a protein and ligand blank sample. The irradiation frequency (FQ2), saturation time (D20), saturation pulse selectivity (SPW9), and power of the saturation pulse (P42) were varied to achieve maximum selective protein saturation (S2). The best saturation of the α-amylase, with 60%, was obtained with FQ2 = 0.5 ppm, D20 = 3 s, SPW9 = 35 dB, and P42 = 50 ms. The pseudo-2D experiment allows simultaneous acquisition of the on-resonance spectrum (with selective protein saturation) and the off-resonance spectrum (without protein saturation). The subtraction of both FIDs yields the STD-NMR spectrum (S3). The off-resonance spectrum serves as a reference spectrum for the determination of ligand saturation by intensity comparison with the STD-NMR spectrum. The protein blank sample contained 10 μM α-amylase, and the ligand blank was acquired with 1.1 mM flavan-3-ol in 0.1 M phosphate buffer/0.04 M NaCl (D2O/H2O, 90/10, v/v). Interaction studies were performed with 10 μM α-amylase and 1 mM (ligand). The software package TopSpin 3.2 of Bruker BioSpin was used for data acquisition and processing.

[3] = 100 μM flavan-3-ol, 310 K, initial injection, control 727 ± 103
[4] = 100 µM flavan-3-ol, inj. 2, read-out: Kic
[5] = 100 µM flavan-3-ol, inj. 2, read-out: Kiu
[6] = 100 µM flavan-3-ol, inj. 3, read-out: Kic
[7] = 100 µM flavan-3-ol, inj. 3, read-out: Kiu
[8] = competitive inhibition constant, 100 μM flavan-3-ol, 310 K, initial injection (inj. 1), read-out: Kic
[9] = relative to control, 100 μM flavan-3-ol, 12 nM α-amylase, starch, 310 K, initial injection (inj. 1)
[10] = relative to control, 100 μM flavan-3-ol, 310 K, initial injection
[11] = uncompetitive inhibition constant, 100 μM flavan-3-ol, 310 K, initial injection (inj. 1), read-out: Kiu
[12] = PC C1 concentrations of ∼105 μM, 310 K

| Structure (SMILES) | α(Kic/Kiu) ([1]; 100 μM flavan-3-ol, 310 K) | ΔRHapp [1, 3] [kcal/mol] | vmax ([1]; 100 µM flavan-3-ol, inj. 2) [%] | Ki [1, 4] [µM] | Ki [1, 5] [µM] | vmax ([1]; 100 µM flavan-3-ol, inj. 3) [%] | Ki [1, 6] [µM] | Ki [1, 7] [µM] | IC50 [1] [µM] | Ki [1, 8] [µM] | vmax [1, 9] [%] | (dQ/dt)max [1, 10] [%] | Ki [1, 11] [µM] | saturation protein–ligand aliph., corrected by a blank [2] [%] | saturation protein–ligand arom., corrected by a blank [2] [%] | saturation aliph. [2] [%] | saturation arom. [2] [%] | ratio aliph. [2] | ratio arom. [2] | also measured |
| --- | --- | --- | --- | --- | --- | --- | --- | --- | --- | --- | --- | --- | --- | --- | --- | --- | --- | --- | --- | --- |
| Oc1cc(O)c2c(c1)O[C@H](c1ccc(O)c(O)c1)[C@@H](O)C2 [CAT, (+)-Catechin] | 0.8 ± 0.4 | 0.162 ± 0.0335 | 78±5 | 447 ± 151 | 403 ± 134 | 79±2 | 458 ± 152 | 399 ± 54 | 431 ± 217 | 356 ± 209 | 79 ± 6 | 80 ± 13 | 431 ± 217 | 3 | 11 | 5 | 13 | 21 | 79 |  |
| Oc1cc(O)c2c(c1)O[C@H](c1ccc(O)c(O)c1)[C@H](O)C2 [EC, (−)-Epicatechin] | 0.7 ± 0.1 | 0.195 ± 0.0127 | 77±5 | 305 ± 162 | 389 ± 41 | 76±3 | 291 ± 80 | 330 ± 52 |  |  | 78 ± 4 | 82 ± 8 |  | 6 | 21 | 6 | 21 | 21 | 79 |  |
| Oc1cc(O)c2c(c1)O[C@H](c1ccc(O)c(O)c1)[C@H](O)[C@H]2c1c(O)cc(O)c2c1O[C@H](c1ccc(O)c(O)c1)[C@@H](O)C2 [PC B1, procyanidin B1] | 0.7 ± 0.2 | 0.156 ± 0.0229 | 65±8 | 216 ± 65 | 208 ± 78 | 70±1 | 539 ± 86 | 240 ± 14 |  | 155 ± 79 | 66 ± 9 | 66 ± 14 |  | 11 | 14 | 11 | 14 | 44 | 56 |  |
| Oc1cc(O)c2c(c1)O[C@H](c1ccc(O)c(O)c1)[C@H](O)[C@H]2c1c(O)cc(O)c2c1O[C@H](c1ccc(O)c(O)c1)[C@H](O)C2 [PC B2, procyanidin B2] | 1.0 ± 0.1 | 0.205 ± 0.00789 | 62±6 | 188 ± 34 | 195 ± 57 | 61±7 | 202 ± 73 | 165 ± 49 |  |  | 62 ± 4 | 56 ± 4 |  | 6 | 9 | 6 | 9 | 40 | 60 |  |
| Oc1cc(O)c2c(c1)O[C@H](c1ccc(O)c(O)c1)[C@H](O)[C@H]2c1c(O)cc(O)c2c1O[C@H](c1ccc(O)c(O)c1)[C@H](O)[C@H]2c1c(O)cc(O)c2c1O[C@H](c1ccc(O)c(O)c1)[C@H](O)C2 [PC C1, procyanidin C1] | 0.9 ± 0.1 | 0.143 ± 0.00789 | 50±5 | 143 ± 56 | 102 ± 19 | 59±2 | 395 ± 78 | 145 ± 14 | 103 ± 16 |  | 50 ± 4 | 44 ± 4 | 103 ± 16 | 7 | 11 | 7 | 11 | 39 | 61 | reduction in α-amylase activity ([1]; 100 μM PC C1): 50%; (dQ/dt)max [1, 12]: 23 ± 0%; ΔRHapp [1, 12]: 0.0406 ± 0.01 kcal/mol; vmax ([1]; PC C1 concentrations of ∼105 μM, 310 K, value printed in brackets): (98 ± 21) %; observation in the STD-NMR sample with α-amylase [2]: visible precipitation; PC C1 concentration in solution after precipitation ([2]; after STD experiment, 1 mM PC C1, 10 μM α-amylase): 0.35 mM; decrease of PC C1 in solution after precipitation ([2]; integrals of aromatic protons, off-resonance spectrum vs pure ligand blank, 1 mM PC C1, 10 μM α-amylase): roughly 65% |

From publication PMC12007089, “Applying Isothermal Titration Calorimetry and Saturation Transfer Difference-NMR to Study the Mode of Interaction of Flavan-3-ols with α-Amylase to Understand Their Impact on Starch Hydrolysis” (Journal of Agricultural and Food Chemistry, 2025)
